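Each compound was tested at five concentrations against cells in 96-well plates for 48 hours. Abbreviation: GI50, concentration required for 50% inhibition of growth.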 The source made the active and inactive calls. Cut-off read from the data, not from the text of the source: active = GI50 up to about 1.1 µM and inactive = higher.
Legend:
Assay in all cases: inhibition of tumour cell growth, NCI panel, 48 h
[1] = system: HT-29
[2] = system: DU-145
[3] = system: 786-0
[4] = system: MCF7
[5] = system: T47D
[6] = system: SF-539
[7] = system: NCI-H522
[8] = system: Hs-578T
[9] = system: SK-MEL-2
[10] = system: HOP-62
[11] = system: SN12C
[12] = system: HCT-15
[13] = system: K562
[14] = system: ACHN
[15] = system: MDA-MB-435
[16] = system: HCC 2998
[17] = system: IGROV-1
[18] = system: M14
[19] = system: HCT-116
[20] = system: Malme-3M
[21] = system: UACC-62
[22] = system: UO-31
[23] = system: SNB-75
[24] = system: OVCAR-3
[25] = system: MDA-MB-231
[26] = system: EKVX
[27] = system: OVCAR-5
[28] = system: LOX IMVI
[29] = system: NCI-H23
[30] = system: NCI-H460
[31] = system: MOLT-4
[32] = system: NCI-H226
[33] = system: UACC-257
[34] = system: COLO 205
[35] = system: PC-3
[36] = system: OVCAR-8
[37] = system: CAKI-1
[38] = system: SW-620
[39] = system: TK-10
[40] = system: RPMI-8226
[41] = system: SK-MEL-5
[42] = system: KM12
[43] = system: BT-549
[44] = system: OVCAR-4
[45] = system: SK-MEL-28
[46] = system: SF-268
[47] = system: SNB-19
[48] = system: CCRF-CEM
[49] = system: SF-295
[50] = system: NCI/ADR-RES
[51] = system: SK-OV-3
[52] = system: MDA-N
[53] = system: U-251
[54] = system: A498
[55] = system: HOP-92
[56] = system: HL-60
[57] = system: A549

Measured: GI50

NC(=S)SCCC(=O)O
inactive: [1] > 100 µM | [2] > 100 µM | [3] > 100 µM | [4] > 100 µM | [5] 43.2 µM | [6] > 100 µM | [7] > 100 µM | [8] > 100 µM | [9] > 100 µM | [10] > 100 µM | [11] > 100 µM | [13] > 100 µM | [14] > 100 µM | [15] > 100 µM | [16] > 100 µM | [17] > 100 µM | [18] > 100 µM | [19] > 100 µM | [20] > 100 µM | [21] > 100 µM | [22] > 100 µM | [23] > 100 µM | [24] > 100 µM | [25] > 100 µM | [26] > 100 µM | [27] > 100 µM | [28] > 100 µM | [29] > 100 µM | [30] > 100 µM | [31] > 100 µM | [32] > 100 µM | [33] > 100 µM | [34] > 100 µM | [35] > 100 µM | [36] > 100 µM | [37] > 100 µM | [38] > 100 µM | [39] > 100 µM | [40] > 100 µM | [41] > 100 µM | [42] > 100 µM | [43] > 100 µM | [44] > 100 µM | [45] > 100 µM | [46] > 100 µM | [47] > 100 µM | [48] > 100 µM | [49] > 100 µM | [50] > 100 µM | [51] > 100 µM | [52] > 100 µM | [53] > 100 µM | [54] > 100 µM | [55] > 100 µM | [56] > 100 µM | [57] > 100 µM
> 100 µM: [12]

Reference: ChEMBL document CHEMBL1201862, “PubChem BioAssay data set” (2004)
